Source: publication PMC6946680, “Modulation of brain cation-Cl^− cotransport via the SPAK kinase inhibitor ZT-1a” (Nature Communications, 2020)
Several values for one entry are separate records, joined by “and”; a condition that tells them apart may be missing. Identical values can stand only once. Entries after “also recorded” stand apart in the source; their conditions may differ.

Experiments:
NKCC1 = test: 86Rb+ uptake assay for NKCC1 activity in HEK-293 cells; type: cell-based; set-up: key to 86Rb+ uptake: 86Rb+ uptake in CPM per mg protein; conditions: for 86Rb+ uptake: Fig 3b, NKCC1 + Bum (0.1 mM), replicates, listed as Bum
Description: (§1) Thirty-six hours post transfection, cells were exposed for 30 min to either control isotonic conditions or hypotonic low [Cl^−] conditions (to activate the SPAK/OSR1 pathway), and then treated for an additional 30 min in the same conditions with the indicated ZT-1a concentrations in the presence of 1 mM ouabain and 0.1 mM bumetanide. Ten-minute ^86Rb^+ uptake values were quantified by scintillation counting, normalized per mg protein for each condition, and plotted for both isotonic and hypotonic conditions. ***p < 0.001; **p < 0.01; *p < 0.05; ns—nonsignificant [by one-way ANOVA with post hoc testing (n = 6, error bars represent the mean ± SEM)]. b ^86Rb^+ uptake assays in the presence of ZT-1a measure transport activity of NKCC1. […] Thirty-six hours post transfection, cells were exposed for 30 min to either control isotonic conditions or hypotonic low [Cl^−] conditions (to activate the SPAK/OSR1 pathway), and then treated in the same conditions for an additional 30 min with 10 µM ZT-1a or 0.1 mM bumetanide (Bum) in the presence of 1 mM ouabain (Na^+/K^+-ATPase inhibitor). ^86Rb^+ uptake was allowed to proceed for 10 min and was then quantified by scintillation counting. ^86Rb^+ uptake CPMs were normalized per mg protein and plotted for both isotonic and hypotonic conditions. […] Thirty-six hours post transfection, cells were exposed for 30 min to either control isotonic conditions or hypotonic low [Cl^−] conditions (to activate the SPAK/OSR1 pathway), and then treated for an additional 30 min in the same conditions with the indicated ZT-1a concentrations in the presence of 1 mM ouabain. Ten-minute ^86Rb^+ uptake values were quantified by scintillation counting, normalized per mg protein for each condition, and plotted for both isotonic and hypotonic conditions. ***p < 0.001; **p < 0.01; *p < 0.05; ns—nonsignificant [by one-way ANOVA with post hoc testing (n = 6, error bars represent the mean ± SEM)].
(§2) This stimulating medium was then removed and replaced with isotonic medium containing inhibitors plus 2 µCi/ml ^86Rb^+. After incubation for 10 min at 37 °C, cells were rapidly washed three times with the respective ice-cold nonradioactive medium. Washed cells were lysed in 300 µl of ice-cold lysis buffer and ^86Rb^+ uptake was quantitated by liquid scintillation counting (PerkinElmer).

human fibroblast cells = test: Cell volume measurement (calcein-AM) under hyperosmotic stress, human fibroblasts; conditions: hypertonic 515 mOsm; BMT or ZT-1a
[1] = tested on: mouse primary cortical neurons; test: Cell volume measurement (calcein-AM) under hyperosmotic stress, primary cortical neurons
HEK-293 cells = test: 86Rb+ uptake assay in empty-vector-transfected HEK-293 cells; type: cell-based, human; set-up: key: 86Rb+ uptake in CPM per mg protein; conditions: Fig 3b, Empty V + Bum (0.1 mM), ouabain, replicates, listed as Bum
Description: as §1, §2

mice = conditions: mouse, in vivo
Description: Post-stroke administration of Closantel in mice reduced ischemic cerebral infarction size and brain swelling in a dose-dependent manner. However, we detected Closantel toxicity in mice at higher doses (~25 mg/kg), consistent with reported adverse effects in humans, including weakness, visual impairment, and blindness[72],[73]. The in vitro nanomolar-potency pan-WNK-kinase inhibitor WNK463 was developed as an antihypertensive drug[74]. […] Although the causes of these adverse effects remain unclear, they also discouraged efficacy testing of WNK463 at higher doses.

[2] = tested on: mouse model of ischemic stroke (tMCAO); test: Infarct volume and hemispheric swelling (TTC) 24 h after tMCAO; type: in vivo

With CCCCNc1cc(C(=O)O)cc(S(N)(=O)=O)c1Oc1ccccc1 [bumetanide, reference compound] the “K+ flux of cells transfected with empty vector or NKCC1 wt cDNA” value (NKCC1; 0.1 mM bumetanide, isotonic or hypotonic low Cl−) was “significantly decreased K^+ flux”, the “86Rb+ uptake” value (NKCC1; Hypotonic low Cl-) was 9502.3 and 11310.4 and 9641.4 and 10421.5 and 10765.4 and 9047.7 and the “86Rb+ uptake” value (NKCC1; Isotonic control) was 1674.6 and 1506.3 and 1758.1 and 1840.4 and 1694.7 and 1729.5. The “regulatory volume increase (RVI) in human fibroblast cells” value (human fibroblast cells) was “absence of RVI”, the “Cell water (relative change)” value ([1]; Fig 5b trace, Time 1.00403) was 0.9843 relative change and the “Cell water (relative change)” value ([1]; Fig 5b trace, Time 2.00427) was 1.007 relative change. For the same compound, the “Cell water (relative change)” value ([1]; Fig 5b trace, Time 3.00425) was 1.002 relative change, the “Cell water (relative change)” value ([1]; Fig 5b trace, Time 4.00423) was 1.004 relative change and the “Cell water (relative change)” value ([1]; Fig 5b trace, Time 5.0042) was 1.002 relative change. For the same compound, the “Cell water (relative change)” value ([1]; Fig 5b trace, Time 6.00445) was 0.7352 relative change, the “Cell water (relative change)” value ([1]; Fig 5b trace, Time 7.00442) was 0.6913 relative change and the “Cell water (relative change)” value ([1]; Fig 5b trace, Time 8.00435) was 0.6745 relative change. The “Cell water (relative change)” value ([1]; Fig 5b trace, Time 9.00452) was 0.6038 relative change, the “Cell water (relative change)” value ([1]; Fig 5b trace, Time 10.0046) was 0.5839 relative change and the “Cell water (relative change)” value ([1]; Fig 5b trace, Time 11.0045) was 0.5893 relative change. The “Cell water (relative change)” value ([1]; Fig 5b trace, Time 12.0045) was 0.5422 relative change, the “Cell water (relative change)” value ([1]; Fig 5b trace, Time 13.0045) was 0.523 relative change and the “Cell water (relative change)” value ([1]; Fig 5b trace, Time 14.0045) was 0.4977 relative change. For the same compound, the “Cell water (relative change)” value ([1]; Fig 5b trace, Time 15.0047) was 0.5231 relative change, the “Cell water (relative change)” value ([1]; Fig 5b trace, Time 16.0047) was 0.4947 relative change and the “Cell water (relative change)” value ([1]; Fig 5b trace, Time 17.0047) was 0.4924 relative change. The “Cell water (relative change)” value ([1]; Fig 5b trace, Time 18.0047) was 0.4545 relative change, the “Cell water (relative change)” value ([1]; Fig 5b trace, Time 19.0049) was 0.4799 relative change and the “Cell water (relative change)” value ([1]; Fig 5b trace, Time 20.0049) was 0.4586 relative change. The “Cell water (relative change)” value ([1]; Fig 5b trace, Time 21.0048) was 0.4488 relative change, the “Cell water (relative change)” value ([1]; Fig 5b trace, Time 22.0048) was 0.4846 relative change and the “Cell water (relative change)” value ([1]; Fig 5b trace, Time 23.005) was 0.4766 relative change. The “Cell water (relative change)” value ([1]; Fig 5b trace, Time 24.0048) was 0.4819 relative change, the “Cell water (relative change)” value ([1]; Fig 5b trace, Time 25.005) was 0.4751 relative change and the “Cell water (relative change)” value ([1]; Fig 5b trace, Time 26.0053) was 0.6008 relative change. For the same compound, the “Cell water (relative change)” value ([1]; Fig 5b trace, Time 27.005) was 0.6725 relative change, the “Cell water (relative change)” value ([1]; Fig 5b trace, Time 28.005) was 0.7341 relative change and the “Cell water (relative change)” value ([1]; Fig 5b trace, Time 29.0051) was 0.8379 relative change. For the same compound, the “Cell water (relative change)” value ([1]; Fig 5b trace, Time 30.005) was 0.9275 relative change, the “Cell water (relative change)” value ([1]; Fig 5b trace, Time 31.005) was 0.981 relative change and the “Cell water (relative change)” value ([1]; Fig 5b trace, Time 32.005) was 1.048 relative change. For the same compound, the “Cell water (relative change)” value ([1]; Fig 5b trace, Time 33.0052) was 1.114 relative change, the “Cell water (relative change)” value ([1]; Fig 5b trace, Time 34.0052) was 1.157 relative change and the “Cell water (relative change)” value ([1]; Fig 5b trace, Time 35.0052) was 1.203 relative change. The “Cell water (relative change)” value ([1]; Time 1.0036) was 0.9714, the “Cell water (relative change)” value ([1]; Time 2.0038) was 1.0042 and the “Cell water (relative change)” value ([1]; Time 3.0038) was 1.0139. For the same compound, the “Cell water (relative change)” value ([1]; Time 4.0037) was 0.9906, the “Cell water (relative change)” value ([1]; Time 5.0037) was 1.0199 and the “Cell water (relative change)” value ([1]; Time 6.0037) was 0.4476. The “Cell water (relative change)” value ([1]; Time 7.0039) was 0.4233, the “Cell water (relative change)” value ([1]; Time 8.0040) was 0.4625 and the “Cell water (relative change)” value ([1]; Time 9.0042) was 0.4683. For the same compound, the “Cell water (relative change)” value ([1]; Time 10.0039) was 0.4401, the “Cell water (relative change)” value ([1]; Time 11.0039) was 0.4457 and the “Cell water (relative change)” value ([1]; Time 12.0039) was 0.4507. For the same compound, the “Cell water (relative change)” value ([1]; Time 13.0041) was 0.4223, the “Cell water (relative change)” value ([1]; Time 14.0041) was 0.4334 and the “Cell water (relative change)” value ([1]; Time 15.0040) was 0.4490. The “Cell water (relative change)” value ([1]; Time 16.0040) was 0.4184, the “Cell water (relative change)” value ([1]; Time 17.0040) was 0.3961 and the “Cell water (relative change)” value ([1]; Time 18.0045) was 0.4241. The “Cell water (relative change)” value ([1]; Time 19.0042) was 0.4174, the “Cell water (relative change)” value ([1]; Time 20.0042) was 0.4139 and the “Cell water (relative change)” value ([1]; Time 21.0042) was 0.4233. For the same compound, the “Cell water (relative change)” value ([1]; Time 22.0041) was 0.4177, the “Cell water (relative change)” value ([1]; Time 23.0044) was 0.4195 and the “Cell water (relative change)” value ([1]; Time 24.0044) was 0.4281. For the same compound, the “Cell water (relative change)” value ([1]; Time 25.0043) was 0.4058, the “Cell water (relative change)” value ([1]; Time 26.0043) was 0.5463 and the “Cell water (relative change)” value ([1]; Time 27.0043) was 0.6294. The “Cell water (relative change)” value ([1]; Time 28.0045) was 0.7254, the “Cell water (relative change)” value ([1]; Time 29.0044) was 0.8393 and the “Cell water (relative change)” value ([1]; Time 30.0044) was 0.8966. The “Cell water (relative change)” value ([1]; Time 31.0046) was 1.0008, the “Cell water (relative change)” value ([1]; Time 32.0046) was 1.0678 and the “Cell water (relative change)” value ([1]; Time 33.0046) was 1.1243. The “Cell water (relative change)” value ([1]; Time 34.0045) was 1.1834, the “Cell water (relative change)” value ([1]; Time 35.0045) was 1.2456 and the “regulatory volume increase (RVI) response of primary cortical neurons” value ([1]; hyperosmotic stress 370 mOsm, ZT-1a 3 μM, BMT 10 μM) was “no RVI response”. For the same compound, the “cell shrinkage of primary cortical neurons” value ([1]; hypertonic 370 mOsm/kg H2O, earlier manuscript version quoted in peer-review file) was 86%, the “initial rate of cell shrinkage” value ([1]; hypertonic stress, earlier manuscript version quoted in peer-review file) was 45 ± 4 % vol/min and the “neurons exhibiting RVI / cells analysed” value ([1]; hypertonicity-mediated osmotic shrinkage, three cultures) was 0/46. The “86Rb+ uptake” value (HEK-293 cells; Hypotonic low Cl-) was 1107.6 and 1237.8 and 1137.4 and 1021.4 and 1200.9 and 1076.2 and the “86Rb+ uptake” value (HEK-293 cells; Isotonic control) was 803.5 and 942.1 and 914.8 and 786.4 and 978.4 and 901.5.

For CC(C)(C)NC(=O)c1cncn1C1CCN(c2ccc(-c3nnc(C(F)(F)F)o3)cn2)CC1 [WNK463], the “adverse effects in mice” value (mice) was “ataxia and breathing difficulties”, the “Infarct volume (mm3)” value ([2]; Fig 9b, group WNK463, individual mice) was 59.9 mm3 and 47.6 mm3 and 101.01 mm3 and 100.21 mm3 and the “Hemisphere swelling (%)” value ([2]; Fig 9c, group WNK463, individual mice) was 22.63% and 14.43% and 26.7% and 16.53%. For the same compound, the “infarct volume and hemispheric swelling (neuroprotection)” value ([2]; WNK463 2.5 mg/kg, 24 h post reperfusion, 2.5 mg/kg) was “reduced neither infarct volume nor hemispheric swelling; also recorded: not neuroprotective”.
